Assays:
ACAT in J774 cells = target: T1, ACAT in J774 cells (Mus musculus, UniProt Q61263); test: ACAT inhibitory action (anti-foaming action) in J774 cells, cholesterol ester formation; assay type: cell-based; conditions: for IC50: J774 cells, 10 μg/ml 25-OH cholesterol, 18-hr culturing, cholesterol ester per protein, read-out: IC50 (μM) of J774-derived enzyme; for IC50 (HepG2)/IC50 (J774): ratio HepG2 / J774
T1 construct: J774 cells or HepG2 cells were inoculated on a 24-well plate; endogenous in cells; host or cells: J774 cells
T1 sequence (Q61263 1-540): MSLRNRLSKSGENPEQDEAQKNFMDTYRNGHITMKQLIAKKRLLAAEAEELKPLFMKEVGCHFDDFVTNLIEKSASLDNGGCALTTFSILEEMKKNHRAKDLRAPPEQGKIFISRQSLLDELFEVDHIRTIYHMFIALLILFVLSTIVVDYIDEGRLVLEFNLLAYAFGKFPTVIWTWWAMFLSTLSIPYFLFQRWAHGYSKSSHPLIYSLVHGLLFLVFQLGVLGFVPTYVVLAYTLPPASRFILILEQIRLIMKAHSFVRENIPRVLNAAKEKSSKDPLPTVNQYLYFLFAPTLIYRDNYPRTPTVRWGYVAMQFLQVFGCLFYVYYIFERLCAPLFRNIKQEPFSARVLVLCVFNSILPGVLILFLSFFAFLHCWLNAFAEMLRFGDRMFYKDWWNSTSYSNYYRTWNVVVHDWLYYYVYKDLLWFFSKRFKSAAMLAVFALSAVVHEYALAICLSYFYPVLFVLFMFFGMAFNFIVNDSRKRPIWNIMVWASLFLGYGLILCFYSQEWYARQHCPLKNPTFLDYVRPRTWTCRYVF
Procedure: (§1) J774 cells or HepG2 cells were inoculated on a 24-well plate; J774 cells and HepG2 cells were cultured in DMEM and MEM culture broths (each of the broths containing 10% calf fetus serum), respectively, in a 5% CO2 incubator at 37° C. for 24 hours. […] After discarding the culture media, the resulting cultures were rinsed twice with PBS and extracted with 1.5 ml of hexane:isopropanol (3:2), for concentration and drying. The extracts were dissolved in isopropanol containing 0.2 ml of 10% Triton X-100, to assay total cholesterol (TC) and free cholesterol (FC) by using Cholesterol E Test WAKO (manufactured by Wako Pure Chemicals, Co.) and Free Cholesterol E Test Wako (manufactured by Wako Pure Chemicals, Co.). […] Based on the difference between TC and FC, cholesterol ester was calculated per protein, to determine IC50, compared with the calculated control IC50 value.

ACAT in HepG2 cells = test: ACAT inhibitory action in HepG2 cells, cholesterol ester formation; assay type: cell-based; conditions: 10 μg/ml 25-OH cholesterol, 18-hr culturing, cholesterol ester per protein, read-out: IC50 (μM) of HepG2-derived enzyme
Procedure: as §1

SMILES | IC50 (ACAT in J774 cells) [µM] | IC50 (HepG2)/IC50 (J774) (ACAT in J774 cells) | melting point [°C] | IC50 (ACAT in HepG2 cells) [µM]
CC(C)c1cccc(C(C)C)c1NC(=O)C(C)(C)CCCOc1ccc2c(c1)C=C(c1nccn1C)C(CCc1ccc(F)cc1)O2 (centres unmarked) [Control 1, 5-[2-(2-(4-fluorophenyl)ethyl)-3-(1-methyl-1H-imidazol-2-yl)-2H-1-benzopyran-6-yl]oxy-2,2-dimethyl-N-(2,6-diisopropylphenyl)pentanamide, reference compound] | 0.56 | 9.5 |  | 
CC(C)c1cccc(C(C)C)c1NC(=O)CCCCCSc1nc2ncccc2o1 [Example 1, 6-(oxazolo[4,5-b]pyridin-2-ylthio)-N-(2,6-diisopropylphenyl)hexanamide] | 1.3 | 3.2 | 94 to 95 | 4.1
CC(C)c1cccc(C(C)C)c1NC(=O)CCCCCSc1nc2cnccc2[nH]1 [Example 6, 6-(imidazolo[4,5-c]pyridin-2-ylthio)-N-(2,6-diisopropylphenyl)hexanamide] | 10 | 1.0 | 96 to 98 | 10
CC(C)c1cccc(C(C)C)c1NC(=O)CCCCCNc1nc2cccnc2o1 [Example 20, 6-(oxazolo[5,4-b]pyridin-2-ylamino)-N-(2,6-diisopropylphenyl)hexanamide] |  |  | 177 to 178 | 
CC(C)c1cccc(C(C)C)c1NC(=O)CCCCCSc1nc2cccnc2s1 [Example 21, 6-(thiazolo[5,4-b]pyridin-2-ylthio)-N-(2,6-diisopropylphenyl)hexanamide] |  |  | 137 to 138 | 
CC(C)c1cccc(C(C)C)c1NC(=O)CCCCCSc1nc2c(CN(C)C)cccc2o1 [Example 27, 6-[4-(N,N-dimethylaminomethyl)benzoxazol-2-ylthio]-N-(2,6-diisopropylphenyl)hexanamide] | 1.31 |  | 113 to 115 | 
CC(C)c1cccc(C(C)C)c1NC(=O)CCCCCSc1nc2c(N(C)C)cccc2o1 [Example 28, 6-(4-N,N-dimethylaminobenzoxazol-2-ylthio)-N-(2,6-diisopropylphenyl)hexanamide] | 0.47 | 0.9 | 129 to 130 | 0.42
CC(C)c1cccc(C(C)C)c1NC(=O)CCCCCSc1nc2cc(OCc3ccccc3)ccc2o1 [Example 29, 6-(5-benzyloxybenzoxazol-2-ylthio)-N-(2,6-diisopropylphenyl)hexanamide] | 0.26 | 7.3 | 102 to 104 | 1.9
COC(=O)c1ccc2oc(SCCCCCC(=O)Nc3c(C(C)C)cccc3C(C)C)nc2c1 [Example 34, 6-(5-methoxycarbonylbenzoxazol-2-ylthio)-N-(2,6-diisopropylphenyl)hexanamide] | 0.6 | 13.5 | 104 to 106 | 8.15
CC(C)c1cccc(C(C)C)c1NC(=O)CCCCCSc1nc2cc(N(C)C)ccc2o1 [Example 38, 6-(5-N,N-dimethylaminobenzoxazol-2-ylthio)-N-(2,6-diisopropylphenyl)hexanamide] | 1.83 |  | 130 to 132 | 
COC(=O)c1ccc2nc(SCCCCCC(=O)Nc3c(C(C)C)cccc3C(C)C)oc2c1 [Example 40, 6-(6-methoxycarbonylbenzoxazol-2-ylthio)-N-(2,6-diisopropylphenyl)hexanamide] |  |  | 157 to 158 | 
CC(C)c1cccc(C(C)C)c1NC(=O)CCCCCSc1nc2ccc(CO)cc2o1 [Example 42, 6-(6-hydroxymethylbenzoxazol-2-ylthio)-N-(2,6-diisopropylphenyl)hexanamide] |  |  | 93 to 95 | 
CC(C)c1cccc(C(C)C)c1NC(=O)CCCCCSc1nc2ccc(CN(C)C)cc2o1 [Example 43, 6-[6-(N,N-dimethylaminomethyl)benzoxazol-2-ylthio]-N-(2,6-diisopropylphenyl)hexanamide] |  |  | 82 to 84 | 
COC(=O)c1cccc2nc(SCCCCCC(=O)Nc3c(C(C)C)cccc3C(C)C)oc12 [Example 46, 6-(7-methoxycarbonylbenzoxazol-2-ylthio)-N-(2,6-diisopropylphenyl)hexanamide] | 0.098 | 303.4 | 118 to 119 | 29.8
CC(C)c1cccc(C(C)C)c1NC(=O)CCCCCSc1nc2cccc(C(=O)O)c2o1 [Example 47, 6-(7-carboxybenzoxazol-2-ylthio)-N-(2,6-diisopropylphenyl)hexanamide] |  |  | 175 to 177 | 
CC(C)c1cccc(C(C)C)c1NC(=O)CCCCCSc1nc2cccc(CO)c2o1 [Example 48, 6-[7-hydroxymethylbenzoxazol-2-ylthio]-N-(2,6-diisopropylphenyl)hexanamide] |  |  | 91 to 92 | 
CC(C)c1cccc(C(C)C)c1NC(=O)CCCCCSc1nc2cccc(CN(C)C)c2o1 [Example 49, 6-[7-(N,N-dimethylaminomethyl)benzoxazol-2-ylthio]-N-(2,6-diisopropylphenyl)hexanamide] |  |  | 102 to 104 | 
CC(C)c1cccc(C(C)C)c1NC(=O)CCCCCSc1nc2cccc(N(C)C)c2o1 [Example 50, 6-(7-N,N-dimethylaminobenzoxazol-2-ylthio)-N-(2,6-diisopropylphenyl)hexanamide] |  |  | 129 to 130 | 
CC(C)c1cccc(C(C)C)c1NC(=O)CCCCCSc1nc2cccc(CN3CCOCC3)c2o1 [Example 51, 6-[7-(1-morpholino)methylbenzoxazol-2-ylthio]-N-(2,6-diisopropylphenyl)hexanamide] |  |  | 117 to 118 | 
CC(C)c1cccc(C(C)C)c1NC(=O)CCCCCSc1nc2cccc(-c3nnn[nH]3)c2o1 [Example 52, 6-[7-(tetrazol-5-yl)benzoxazol-2-ylthio)-N-(2,6-diisopropylphenyl)hexanamide] |  |  | 218 to 220 | 
COC(=O)c1ccc2nc(SCCCCCCCCC(=O)Nc3c(C(C)C)cccc3C(C)C)oc2c1 [Example 54, 9-(6-methoxycarbonylbenzoxazol-2-ylthio)-N-(2,6-diisopropylphenyl)nonanamide] |  |  | 122 to 124 | 
COC(=O)c1cccc2nc(SCCCCCCCNC(=O)Nc3c(C(C)C)cccc3C(C)C)oc12 [Example 55, N-(2,6-diisopropylphenyl)-N′-[7-(7-methoxycarbonylbenzoxazol-2-ylthio)heptyl]urea] |  |  | 179 to 181 | 
COC(=O)c1cccc2nc([S+]([O-])CCCCCCCNC(=O)Nc3c(C(C)C)cccc3C(C)C)oc12 (centres unmarked) [Example 56, N-(2,6-diisopropylphenyl)-N′-[7-(7-methoxycarbonylbenzoxazol-2-ylsulfinyl)heptyl]urea] |  |  | 145 to 147 | 
COC(=O)c1cccc2nc(SCCCCCC(=O)Nc3c(OC)cc(OC)cc3OC)oc12 [Example 62, 6-(7-methoxycarbonylbenzoxazol-2-ylthio)-N-(2,4,6-trimethoxyphenyl)hexanamide] |  |  | 136 to 138 | 
COC(=O)c1ccc2nc(SCCCCCC(=O)Nc3c(C(C)C)cccc3C(C)C)[nH]c2c1 [Example 63, 6-(5-methoxycarbonylbenzimidazol-2-ylthio)-N-(2,6-diisopropylphenyl)hexanamide] |  |  | 190 to 192 | 
CC(C)c1cccc(C(C)C)c1NC(=O)CCCCCSc1ncc[nH]1 [Example 68, 6-(imidazol-2-ylthio)-N-(2,6-diisopropylphenyl)hexanamide] |  |  | 190 to 191 | 
CC(C)c1cccc(C(C)C)c1NC(=O)CCCCCSc1nc2cccc(C(F)(F)F)c2o1 [Example 74, 6-(7-trifluoromethylbenzoxazol-2-ylthio)-N-(2,6-diisopropylphenyl)hexanamide] |  |  | 130 | 
CCOC(=O)c1cccc2nc(SCCCCCC(=O)Nc3c(C(C)C)cccc3C(C)C)oc12 [Example 79, 6-(7-ethoxycarbonylbenzoxazol-2-ylthio)-N-(2,6-diisopropylphenyl)hexanamide] |  |  | 114 to 116 | 
COC(=O)c1c(O)ccc2nc(SCCCCCC(=O)Nc3c(C(C)C)cccc3C(C)C)oc12 [Example 91, 6-[6-hydroxy-7-methoxycarbonylbenzoxazol-2-ylthio)-N-(2,6-diisopropylphenyl)hexanamide] |  |  | 155 to 156 | 

From patent US6362208B1, “Anilide compounds and drugs containing the same” (Kowa Company, Ltd., priority 1997, dated 2002)
